From patent publication US20230202985A1, “Indoles, Indazoles, and Related Analogs for Inhibiting YAP/TAZ-TEAD” (THE KATHOLIEKE UNIVERSITEIT LEUVEN, priority 2021, published 2023)

Test system: YAP/TAZ-TEAD transcription
Assay: Reporter gene assay for measuring the inhibition of YAP/TAZ-TEAD transcription (TEAD-responsive element luciferase reporter in Hek293T cells)
Type: cell-based
Conditions: Homo sapiens, HEK-293T; Hek293T cells transfected with TEAD-responsive luciferase reporter, 24 hours incubation
Experimental: Hek293T cells are cultured in DMEM supplemented with 10% fetal bovine serum, Sodium pyruvate, Sodium bicarbonate, L-glutamine. The cells are harvested and transiently transfected with TEAD-responsive element luciferase reporter. Transfected cells are plated in 384-wells plate containing pre-diluted compounds. After 24 hours incubation at 37° C./5% CO2, assay plates were cooled down to RT and levelled to an equal volume per well, prior to the addition of 25 uL luciferase substrate SteadyLite (Perkin Elmer)/well. The plate was shaken for 10 min at 600 rpm, centrifuged for 1 min at 500 rpm and measured with an Envision reader (PerkinElmer). The amount of relative light units produced by the TEAD reporter is used to calculated percent of inhibition.
The percent of reporter inhibition was calculated in the presence of a positive control inhibitor (100% inhibition) versus a condition with the presence of the vehicle basal activity of the reporter (0% inhibition). The ability of a test compound to inhibit this activity was determined as:
Percentage inhibition=[1−((RLU determined in the presence of vehicle−RLU determined for sample with test compound present) divided by (RLU determined in the presence of vehicle−RLU determined for sample with positive control inhibitor))]*100
The activities of example compounds tested are depicted in Table 6. The activity ranges A, B and C refer to IC50 values in the reporter gene assay as follows: “A”: IC50<1 μM; “B”: 1 μM≤IC50≤20 μM and “C”: IC50>20 μM; NT=not tested.

SMILES | EC50 [µM]
O=C1OCCN1Cc1nn(-c2ccc(C(F)(F)F)cc2)c2ccccc12 [compound 18, 3-((1-(4-(trifluoromethyl)phenyl)-1H-indazol-3-yl)methyl)oxazolidin-2-one] | < 1
O=C(O)COc1cccc2c1cnn2-c1ccc(C(F)(F)F)cc1 [compound 69, 2-[1-[4-(trifluoromethyl)phenyl]indazol-4-yl]oxyacetic acid] | > 20
CC(=O)NCc1nn(-c2ccc(C(F)(F)F)cc2)c2ccc(C(F)(F)F)cc12 [compound 72, N-[[5-(trifluoromethyl)-1-[4-(trifluoromethyl)phenyl]indazol-3-yl]methyl]acetamide] | 1 to 20
C=CC(=O)Nc1cn(-c2ccc(C(C)C)cc2)c2ccccc12 [compound 23, N-(1-(4-isopropylphenyl)-1H-indol-3-yl)acrylamide] | < 1
CCC(=O)NCc1nn(-c2ccc(C(F)(F)F)cc2)c2ccc(OCC3CC3)cc12 [compound 67, N-[[5-(cyclopropylmethoxy)-1-[4-(trifluoromethyl)phenyl]indazol-3-yl]methyl]propanamide] | > 20
O=C(NCC(O)CO)c1nn(-c2ccc(C(F)(F)F)cc2)c2ccccc12 (stereo not shown) [compound 15, N-(2,3-dihydroxypropyl)-1-(4-(trifluoromethyl)phenyl)-1H-indazole-3-carboxamide] | 1 to 20
O=S(=O)(NCc1nn(-c2ccc(C(F)(F)F)cc2)c2ccccc12)C1CC1 [compound 11, N-((1-(4-(trifluoromethyl)phenyl)-1H-indazol-3-yl)methyl)cyclopropanesulfonamide] | 1 to 20
C=CC(=O)NCc1cc2ccccc2n1Cc1cccc(C(F)(F)F)c1 [compound 32, N-((1-(3-(trifluoromethyl)benzyl)-1H-indol-2-yl)methyl)acrylamide] | < 1
CS(=O)(=O)NCc1nn(-c2ccc(C(F)(F)F)cc2)c2ccc(OCC3CCOC3)cc12 (racemic) [compound 44, N-[[5-[[rac-tetrahydrofuran-3-yl]methoxy]-1-[4-(trifluoromethyl)phenyl]indazol-3-yl]methyl]methanesulfonamide] | 1 to 20
CNC(=O)Cc1cn2cc(Nc3ccccc3)cc(-c3ccn(C)n3)c2n1 [compound 39, N-methyl-2-(8-(1-methyl-1H-pyrazol-3-yl)-6-(phenylamino)imidazo[1,2-a]pyridin-2-yl)acetamide] | > 20
C=C(CNc1nn(-c2ccc(C(F)(F)F)cc2)c2ccccc12)C(=O)O [compound 70, 2-[[[1-[4-(trifluoromethyl)phenyl]indazol-3-yl]amino]methyl]prop-2-enoic acid] | < 1
N#CCS(=O)(=O)NCc1nn(-c2ccc(C(F)(F)F)cc2)c2ccccc12 [compound 57, 1-cyano-N-[[1-[4-(trifluoromethyl)phenyl]indazol-3-yl]methyl]methanesulfonamide] | 1 to 20
CCC(=O)NCc1nn(-c2ccc(C(F)(F)F)cc2)c2ccc(Oc3cc(=O)[nH]c(=O)n3C)cc12 [compound 53, N-[[5-(3-methyl-2,6-dioxo-pyrimidin-4-yl)oxy-1-[4-(trifluoromethyl)phenyl]indazol-3-yl]methyl]propanamide] | > 20
C=CC(=O)Nc1cn(-c2ccc(-c3ccccc3)cc2)c2ccccc12 [compound 26, N-(1-([1,1′-biphenyl]-4-yl)-1H-indol-3-yl)acrylamide] | < 1
C=CC(=O)Nc1cn(-c2ccc(Cl)cc2)c2ccccc12 [compound 24, N-(1-(4-chlorophenyl)-1H-indol-3-yl)acrylamide] | < 1
C=CC(=O)Nc1cn(-c2cccc(Cl)c2)c2ccccc12 [compound 25, N-(1-(3-chlorophenyl)-1H-indol-3-yl)acrylamide] | 1 to 20

SMILES | EC50 [µM]
CCC(=O)NCc1cn(-c2ccc(C(F)(F)F)cc2)c2ccccc12 [compound 28, N-((1-(4-(trifluoromethyl)phenyl)-1H-indol-3-yl)methyl)propionamide] | 1 to 20
CS(=O)(=O)NCc1nn(-c2ccc(OC(F)(F)F)cc2)c2ccccc12 [compound 6, N-((1-(4-(trifluoromethoxy)phenyl)-1H-indazol-3-yl)methyl)methanesulfonamide] | 1 to 20
CS(=O)(=O)NC(=O)c1nn(-c2ccc(C(F)(F)F)cc2)c2ccccc12 [compound 12, N-(methylsulfonyl)-1-(4-(trifluoromethyl)phenyl)-1H-indazole-3-carboxamide] | 1 to 20
Cn1ccc(-c2cc(Nc3ccccc3)cn3cc(CC(=O)O)nc23)n1 [compound 38, 2-(8-(1-methyl-1H-pyrazol-3-yl)-6-(phenylamino)imidazo[1,2-a]pyridin-2-yl)acetic acid] | > 20
O=C(O)Cc1cn2cc(-c3ccccc3)cc(-c3cnn(Cc4cccnc4)c3)c2n1 [compound 36, 2-(6-phenyl-8-(1-(pyridin-3-ylmethyl)-1H-pyrazol-4-yl)imidazo[1,2-a]pyridin-2-yl)acetic acid] | > 20
CCC(=O)NCc1cc2ccccc2n1-c1ccc(C(F)(F)F)cc1 [compound 30, N-((1-(4-(trifluoromethyl)phenyl)-1H-indol-2-yl)methyl)propionamide] | > 20
CNC(=O)Cc1cn2cc(-c3ccccc3)cc(-c3ccn(C)n3)c2n1 [compound 37, N-methyl-2-(8-(1-methyl-1H-pyrazol-3-yl)-6-phenylimidazo[1,2-a]pyridin-2-yl)acetamide] | > 20
CCC(=O)NCc1nn(-c2ccc(C(F)(F)F)cc2)c2ccc(OCc3ccccc3)cc12 [compound 55, N-[[5-benzyloxy-1-[4-(trifluoromethyl)phenyl]indazol-3-yl]methyl]propanamide] | > 20
Cn1cc(S(=O)(=O)NCc2nn(-c3ccc(C(F)(F)F)cc3)c3ccccc23)cn1 [compound 9, 1-methyl-N-((1-(4-(trifluoromethyl)phenyl)-1H-indazol-3-yl)methyl)-1H-pyrazole-4-sulfonamide] | > 20
C=CC(=O)Nc1cn(-c2ccccc2)c2ccccc12 [compound 22, N-(1-phenyl-1H-indol-3-yl)acrylamide] | 1 to 20
CNC(=O)c1nn(-c2ccc(C(F)(F)F)cc2)c2ccccc12 [compound 8, N-methyl-1-(4-(trifluoromethyl)phenyl)-1H-indazole-3-carboxamide] | > 20
Cn1c(Oc2ccc3c(c2)c(CNS(C)(=O)=O)nn3-c2ccc(C(F)(F)F)cc2)cc(=O)[nH]c1=O [compound 60, N-[[5-(3-methyl-2,6-dioxo-pyrimidin-4-yl)oxy-1-[4-(trifluoromethyl)phenyl]indazol-3-yl]methyl]methanesulfonamide] | > 20
C#CCOc1ccc2c(c1)c(CNC(=O)CC)nn2-c1ccc(C(F)(F)F)cc1 [compound 64, N-[[5-prop-2-ynoxy-1-[4-(trifluoromethyl)phenyl]indazol-3-yl]methyl]propanamide] | > 20
C=CC(=O)NCc1nn(-c2ccc(C(F)(F)F)cc2)c2ccncc12 [compound 41, N-((1-(4-(trifluoromethyl)phenyl)-1H-pyrazolo[4,3-c]pyridin-3-yl)methyl)acrylamide] | < 1
O=C(NS(=O)(=O)C1CC1)c1nn(-c2ccc(C(F)(F)F)cc2)c2ccccc12 [compound 14, N-(cyclopropylsulfonyl)-1-(4-(trifluoromethyl)phenyl)-1H-indazole-3-carboxamide] | > 20
